Data on six molecules can be found in patent US9486506B2 (Novo Nordisk A/S, priority 2011, dated 2016).

Data set [1] deals with T1, glucagon receptor (Homo sapiens, UniProt P47871).
T1 construct: expressed in transfected cells
As to the kind of experiment: Assay (I) Glucagon activity (cAMP biosensor, FLIPR). The class given is cell-based.

Data set [2] can be described thus: Assay (X) Chemical stability assessment by RP-UPLC. The class given is physicochemical. To be noted: pH 8.15, 14 days at 37° C. vs 5° C., 333 μM.

Structures are written as SMILES. Numbered stars: 1 amine (or outer) side, 2 acyl side, 3 side chain; on linkers, the order of the positions; unused ones are H or OH. Side chains are listed from the residue outwards. Peptide text beside a SMILES is read from it. * marks the point of attachment. C18 diacid = O=C(O)CCCCCCCCCCCCCCCCC(=O)*; C16 diacid = O=C(O)CCCCCCCCCCCCCCC(=O)*; γGlu = O=C(O)[C@H](CCC(=O)[*:2])N[*:1]; AEEA = NCCOCCOCC(=O)O

T1 sequence (P47871 26-477): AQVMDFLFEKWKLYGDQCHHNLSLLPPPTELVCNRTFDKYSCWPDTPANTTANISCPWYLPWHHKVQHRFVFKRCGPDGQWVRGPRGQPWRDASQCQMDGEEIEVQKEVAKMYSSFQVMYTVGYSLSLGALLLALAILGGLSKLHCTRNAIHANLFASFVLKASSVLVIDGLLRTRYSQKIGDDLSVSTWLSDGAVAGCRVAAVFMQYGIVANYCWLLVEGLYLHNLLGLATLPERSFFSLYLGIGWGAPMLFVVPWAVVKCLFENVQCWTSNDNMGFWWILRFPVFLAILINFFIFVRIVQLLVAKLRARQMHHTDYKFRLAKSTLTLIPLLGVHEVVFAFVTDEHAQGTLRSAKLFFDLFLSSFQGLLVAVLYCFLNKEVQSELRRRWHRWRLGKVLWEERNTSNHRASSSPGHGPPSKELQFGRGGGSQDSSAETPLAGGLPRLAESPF

As usually defined, the EC50 is the midpoint of the concentration-response curve. A low value points to higher potency in that assay. Molecule `CC(C)C[C@H](NC(=O)[C@H](Cc1c[nH]c2ccccc12)NC(=O)[C@H](CCCCNC(=O)CC[C@H](NC(=O)CC[C@H](NC(=O)CC[C@H](NC(=O)CC[C@H](NC(=O)CCCCCCCCCCCCCCCCC(=O)O)C(=O)O)C(=O)O)C(=O)O)C(=O)O)NC(=O)[C@@H](NC(=O)[C@H](Cc1ccccc1)NC(=O)[C@H](CC(=O)O)NC(=O)[C@H](CCC(N)=O)NC(=O)[C@H](C)NC(=O)[C@H](CCCNC(=N)N)NC(=O)[C@H](CCCNC(=N)N)NC(=O)[C@@H](NC(=O)[C@H](CC(=O)O)NC(=O)[C@H](CC(C)C)NC(=O)[C@H](Cc1ccc(O)cc1)NC(=O)[C@H](CCCCN)NC(=O)[C@H](CO)NC(=O)[C@H](Cc1ccc(O)cc1)NC(=O)[C@H](CC(=O)O)NC(=O)[C@H](CO)NC(=O)[C@@H](NC(=O)[C@H](Cc1ccccc1)NC(=O)[C@@H](NC(=O)CNC(=O)[C@H](CCC(N)=O)NC(=O)[C@H](CO)NC(=O)[C@@H](N)Cc1c[nH]cn1)[C@@H](C)O)[C@@H](C)O)C(C)C)C(C)C)C(=O)N[C@@H](CC(C)C)C(=O)N[C@@H](CO)C(=O)N[C@H](C(=O)O)[C@@H](C)O` [Example 78, N^ε24-[(4S)-4-carboxy-4-[[(4S)-4-carboxy-4-[[(4S)-4-carboxy-4-[[(4S)-4-carboxy-4-(17-carboxyheptadecanoylamino)butanoyl]amino]butanoyl]amino]butanoyl]amino]butanoyl]-[Val16,Lys24,Leu27,Ser28]-Glucagon] registered an EC50 in data set [1] of 0.134 nM. The “Chemical stability [Purity loss/14 days 37 C.]” value in data set [2] is on record as 4.3%.
`CC(C)C[C@H](NC(=O)[C@H](Cc1ccc(O)cc1)NC(=O)[C@H](CCCNC(=N)N)NC(=O)[C@H](CO)NC(=O)[C@H](Cc1ccc(O)cc1)NC(=O)[C@H](CC(=O)O)NC(=O)[C@H](CO)NC(=O)[C@@H](NC(=O)[C@H](Cc1ccccc1)NC(=O)[C@@H](NC(=O)CNC(=O)[C@H](CCC(N)=O)NC(=O)[C@H](CO)NC(=O)[C@@H](N)Cc1c[nH]cn1)[C@@H](C)O)[C@@H](C)O)C(=O)N[C@@H](CC(=O)O)C(=O)N[C@@H](CCC(=O)O)C(=O)N[C@@H](CCCNC(=N)N)C(=O)N[C@@H](CCCNC(=N)N)C(=O)N[C@@H](C)C(=O)N[C@@H](CCC(N)=O)C(=O)N[C@@H](CC(=O)O)C(=O)N[C@@H](Cc1ccccc1)C(=O)N[C@H](C(=O)N[C@@H](CCCCNC(=O)CC[C@H](NC(=O)CC[C@H](NC(=O)COCCOCCNC(=O)COCCOCCNC(=O)CC[C@H](NC(=O)CCCCCCCCCCCCCCCCC(=O)O)C(=O)O)C(=O)O)C(=O)O)C(=O)N[C@@H](Cc1c[nH]c2ccccc12)C(=O)N[C@@H](CC(C)C)C(=O)N[C@@H](CC(C)C)C(=O)N[C@@H](CO)C(=O)N[C@H](C(=O)O)[C@@H](C)O)C(C)C` [Example 42, N^ε24-[(4S)-4-carboxy-4-[[(4S)-4-carboxy-4-[[2-[2-[2-[[2-[2-[2-[[(4S)-4-carboxy-4-(17-carboxyheptadecanoylamino)butanoyl]amino]ethoxy]ethoxy]acetyl]amino]ethoxy]ethoxy]acetyl]amino]butanoyl]amino]butanoyl]-[Arg12,Glu16,Lys24,Leu27,Ser28]-Glucagon] (H-HSQGTFTSDYSRYLDERRAQDFVK([γGlu-γGlu-AEEA-AEEA-γGlu-C18 diacid])WLLST-OH) came in with an EC50 in data set [1] of 0.153 nM. In addition, the “Chemical stability [Purity loss/14 days 37 C.]” value in data set [2] is 7.2%.
The corresponding values for `CC(C)C[C@H](NC(=O)[C@H](CC(=O)O)NC(=O)[C@H](CC(C)C)NC(=O)[C@H](Cc1ccc(O)cc1)NC(=O)[C@H](CCCNC(=N)N)NC(=O)[C@H](CO)NC(=O)[C@H](Cc1ccc(O)cc1)NC(=O)[C@H](CC(=O)O)NC(=O)[C@H](CO)NC(=O)[C@@H](NC(=O)[C@H](Cc1ccccc1)NC(=O)[C@@H](NC(=O)CNC(=O)[C@H](CCC(N)=O)NC(=O)[C@H](CO)NC(=O)[C@@H](N)Cc1c[nH]cn1)[C@@H](C)O)[C@@H](C)O)C(=O)N[C@@H](CCCNC(=N)N)C(=O)N[C@@H](CCCNC(=N)N)C(=O)N[C@@H](C)C(=O)N[C@@H](CCC(N)=O)C(=O)N[C@@H](CC(=O)O)C(=O)N[C@@H](Cc1ccccc1)C(=O)N[C@H](C(=O)N[C@@H](CCCCNC(=O)CC[C@H](NC(=O)CC[C@H](NC(=O)CC[C@H](NC(=O)COCCOCCNC(=O)COCCOCCNC(=O)CC[C@H](NC(=O)CCCCCCCCCCCCCCCCC(=O)O)C(=O)O)C(=O)O)C(=O)O)C(=O)O)C(=O)N[C@@H](Cc1c[nH]c2ccccc12)C(=O)N[C@@H](CC(C)C)C(=O)N[C@@H](CC(C)C)C(=O)N[C@@H](CO)C(=O)N[C@H](C(=O)O)[C@@H](C)O)C(C)C` [Example 45, N^ε24-[(4S)-4-carboxy-4-[[(4S)-4-carboxy-4-[[(4S)-4-carboxy-4-[[2-[2-[2-[[2-[2-[2-[[(4S)-4-carboxy-4-(17-carboxyheptadecanoylamino)butanoyl]amino]ethoxy]ethoxy]acetyl]amino]ethoxy]ethoxy]acetyl]amino]butanoyl]amino]butanoyl]amino]butanoyl]-[Arg12,Leu16,Lys24,Leu27,Ser28]-Glucagon] (H-HSQGTFTSDYSRYLDLRRAQDFVK([γGlu-γGlu-γGlu-AEEA-AEEA-γGlu-C18 diacid])WLLST-OH) are 0.243 nM and 3.3%.
Take `CC(C)C[C@H](NC(=O)[C@H](Cc1ccc(O)cc1)NC(=O)[C@H](CCCCN)NC(=O)[C@H](CO)NC(=O)[C@@H](NC(=O)[C@H](CC(=O)O)NC(=O)[C@H](CO)NC(=O)[C@@H](NC(=O)[C@H](Cc1ccccc1)NC(=O)[C@@H](NC(=O)CNC(=O)[C@H](CCC(N)=O)NC(=O)[C@H](CO)NC(=O)[C@@H](N)Cc1c[nH]cn1)[C@@H](C)O)[C@@H](C)O)C(C)C)C(=O)N[C@@H](CCC(=O)O)C(=O)N[C@@H](CO)C(=O)N[C@@H](CCCNC(=N)N)C(=O)N[C@@H](CCCNC(=N)N)C(=O)N[C@@H](C)C(=O)N[C@@H](CCC(N)=O)C(=O)N[C@@H](CCC(=O)O)C(=O)N[C@@H](Cc1ccccc1)C(=O)N[C@H](C(=O)N[C@@H](CCCCNC(=O)CC[C@H](NC(=O)CC[C@H](NC(=O)CC[C@H](NC(=O)CC[C@H](NC(=O)CCCCCCCCCCCCCCCCC(=O)O)C(=O)O)C(=O)O)C(=O)O)C(=O)O)C(=O)N[C@@H](Cc1c[nH]c2ccccc12)C(=O)N[C@@H](CC(C)C)C(=O)N[C@@H](CC(C)C)C(=O)N[C@@H](CO)C(=O)N[C@H](C(=O)O)[C@@H](C)O)C(C)C` [Example 50, N^ε24-[(4S)-4-carboxy-4-[[(4S)-4-carboxy-4-[[(4S)-4-carboxy-4-[[(4S)-4-carboxy-4-(17-carboxyheptadecanoylamino)butanoyl]amino]butanoyl]amino]butanoyl]amino]butanoy]-[Val10,Glu15,Glu21,Lys24,Leu27,Ser28]-Glucagon] (H-HSQGTFTSDVSKYLESRRAQEFVK([γGlu-γGlu-γGlu-γGlu-C18 diacid])WLLST-OH): the response in data set [1] was half-maximal at 0.118 nM (EC50). Moreover, the “Chemical stability [Purity loss/14 days 37 C.]” value in data set [2] is listed as 4.8%.
As for `CC(C)C[C@H](NC(=O)[C@H](Cc1ccc(O)cc1)NC(=O)[C@H](CCCNC(=N)N)NC(=O)[C@H](CO)NC(=O)[C@H](Cc1ccc(O)cc1)NC(=O)[C@H](CC(=O)O)NC(=O)[C@H](CO)NC(=O)[C@@H](NC(=O)[C@H](Cc1ccccc1)NC(=O)[C@@H](NC(=O)CNC(=O)[C@H](CCC(N)=O)NC(=O)[C@H](CO)NC(=O)[C@@H](N)Cc1c[nH]cn1)[C@@H](C)O)[C@@H](C)O)C(=O)N[C@@H](CC(=O)O)C(=O)N[C@@H](C)C(=O)N[C@@H](CCCNC(=N)N)C(=O)N[C@@H](CCCNC(=N)N)C(=O)N[C@@H](C)C(=O)N[C@@H](CCC(N)=O)C(=O)N[C@@H](CC(=O)O)C(=O)N[C@@H](Cc1ccccc1)C(=O)N[C@H](C(=O)N[C@@H](CCCCNC(=O)CC[C@H](NC(=O)CC[C@H](NC(=O)CC[C@H](NC(=O)CCCCCCCCCCCCCCCCC(=O)O)C(=O)O)C(=O)O)C(=O)O)C(=O)N[C@@H](Cc1c[nH]c2ccccc12)C(=O)N[C@@H](CC(C)C)C(=O)N[C@@H](CC(C)C)C(=O)N[C@@H](CO)C(=O)N[C@H](C(=O)O)[C@@H](C)O)C(C)C` [Example 92, N^ε24-[(4S)-4-carboxy-4-[[(4S)-4-carboxy-4-[[(4S)-4-carboxy-4-(17-carboxyheptadecanoylamino)butanoyl]amino]butanoyl]amino]butanoyl]-[Arg12,Ala16,Lys24,Leu27,Ser28]-Glucagon] (H-HSQGTFTSDYSRYLDARRAQDFVK([γGlu-γGlu-γGlu-C18 diacid])WLLST-OH), in data set [1], the EC50 was 0.066 nM. In data set [2], the “Chemical stability [Purity loss/14 days 37 C.]” value is given as 6.5%.
On the same counts, the results for `CC(C)C[C@H](NC(=O)[C@H](Cc1ccc(O)cc1)NC(=O)[C@H](CCCNC(=N)N)NC(=O)[C@H](CO)NC(=O)[C@H](Cc1ccc(O)cc1)NC(=O)[C@H](CC(=O)O)NC(=O)[C@H](CO)NC(=O)[C@@H](NC(=O)[C@H](Cc1ccccc1)NC(=O)[C@@H](NC(=O)CNC(=O)[C@H](CCC(N)=O)NC(=O)[C@H](CO)NC(=O)[C@@H](N)Cc1c[nH]cn1)[C@@H](C)O)[C@@H](C)O)C(=O)N[C@@H](CC(=O)O)C(=O)N[C@@H](C)C(=O)N[C@@H](CCCNC(=N)N)C(=O)N[C@@H](CCCNC(=N)N)C(=O)N[C@@H](C)C(=O)N[C@@H](CCC(N)=O)C(=O)N[C@@H](CC(=O)O)C(=O)N[C@@H](Cc1ccccc1)C(=O)N[C@H](C(=O)N[C@@H](CCCCNC(=O)CC[C@H](NC(=O)CC[C@H](NC(=O)COCCOCCNC(=O)COCCOCCNC(=O)CC[C@H](NC(=O)CCCCCCCCCCCCCCC(=O)O)C(=O)O)C(=O)O)C(=O)O)C(=O)N[C@@H](Cc1c[nH]c2ccccc12)C(=O)N[C@@H](CC(C)C)C(=O)N[C@@H](CC(C)C)C(=O)N[C@@H](CO)C(=O)N[C@H](C(=O)O)[C@@H](C)O)C(C)C` [Example 84, N^ε24-[(4S)-4-carboxy-4-[[(4S)-4-carboxy-4-[[2-[2-[2-[[2-[2-[2-[[(4S)-4-carboxy-4-(15-carboxypentadecanoylamino)butanoyl]amino]ethoxy]ethoxy]acetyl]amino]ethoxy]ethoxy]acetyl]amino]butanoyl]amino]butanoyl]-[Arg12,Ala16,Lys24,Leu27,Ser28]-Glucagon] (H-HSQGTFTSDYSRYLDARRAQDFVK([γGlu-γGlu-AEEA-AEEA-γGlu-C16 diacid])WLLST-OH) are 0.022 nM and 10.7%.
